Values quoted from earlier work in patent publication US20260091069A1, “TRANS[…] TRA[…] REGULATED ONCOLYTIC HERPES SIMPLEX VIRUS VECTORS” (VIROGIN BIOTECH CANADA LTD, priority 2021, published 2026).

Details: clinical dose of Ganciclovir

Nc1nc(O)c2ncn(COC(CO)CO)c2n1 [Ganciclovir]
Cmax in humans: 9 µg/mL
